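Exposure lasted 48 hours, with cells grown in 96-well plates and compounds tested at five concentrations. Definition used: TGI = concentration required for complete inhibition of growth.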
What was measured:
Experiment in all cases: inhibition of tumour cell growth, NCI panel, 48 h
NCI/ADR-RES ovarian = test system: NCI/ADR-RES ovarian
MDA-N = test system: MDA-N
NCI-H226 lung = test system: NCI-H226 lung
OVCAR-8 ovarian = test system: OVCAR-8 ovarian
K-562 leukemia = test system: K-562 leukemia
TK-10 renal = test system: TK-10 renal
786-0 renal = test system: 786-0 renal
NCI-H460 lung = test system: NCI-H460 lung
HOP-62 NSCLC = test system: HOP-62 NSCLC
MALME-3M melanoma = test system: MALME-3M melanoma
SN12C renal = test system: SN12C renal
SF-539 CNS = test system: SF-539 CNS
HL-60(TB) leukemia = test system: HL-60(TB) leukemia
IGROV1 ovarian = test system: IGROV1 ovarian
U251 CNS = test system: U251 CNS
SF-268 CNS = test system: SF-268 CNS
DU-145 prostate = test system: DU-145 prostate
OVCAR-3 ovarian = test system: OVCAR-3 ovarian
CCRF-CEM leukemia = test system: CCRF-CEM leukemia
CAKI-1 renal = test system: CAKI-1 renal
M14 melanoma = test system: M14 melanoma
LOX IMVI melanoma = test system: LOX IMVI melanoma
EKVX NSCLC = test system: EKVX NSCLC
COLO 205 colon = test system: COLO 205 colon
MDA-MB-435 = test system: MDA-MB-435
MDA-MB-231 breast = test system: MDA-MB-231 breast
T-47D breast = test system: T-47D breast
HS 578T breast = test system: HS 578T breast
RPMI-8226 leukemia = test system: RPMI-8226 leukemia
BT-549 breast = test system: BT-549 breast
HCT-116 colon = test system: HCT-116 colon
SNB-19 CNS = test system: SNB-19 CNS
NCI-H522 lung = test system: NCI-H522 lung
KM12 colon = test system: KM12 colon
SW-620 colon = test system: SW-620 colon
NCI-H23 lung = test system: NCI-H23 lung
PC-3 prostate = test system: PC-3 prostate
A549 NSCLC = test system: A549 NSCLC
SK-MEL-5 melanoma = test system: SK-MEL-5 melanoma
MCF7 breast = test system: MCF7 breast
UO-31 renal = test system: UO-31 renal
HOP-92 NSCLC = test system: HOP-92 NSCLC
HCT-15 colon = test system: HCT-15 colon
SK-MEL-28 melanoma = test system: SK-MEL-28 melanoma
SF-295 CNS = test system: SF-295 CNS
OVCAR-5 ovarian = test system: OVCAR-5 ovarian
SR leukemia = test system: SR leukemia
A498 renal = test system: A498 renal
ACHN renal = test system: ACHN renal
UACC-257 melanoma = test system: UACC-257 melanoma
UACC-62 melanoma = test system: UACC-62 melanoma
MOLT-4 leukemia = test system: MOLT-4 leukemia
SNB-75 CNS = test system: SNB-75 CNS
HT29 colon = test system: HT29 colon
OVCAR-4 ovarian = test system: OVCAR-4 ovarian
RXF 393 renal = test system: RXF 393 renal
SK-OV-3 ovarian = test system: SK-OV-3 ovarian
SK-MEL-2 melanoma = test system: SK-MEL-2 melanoma

Measured: TGI

COC(=O)C(Cc1c[nH]c2ccccc12)NP(=O)(O)OCC1OC(n2ccc(N)nc2=O)C(O)C1O (stereo not drawn)
> 100 µM: NCI/ADR-RES ovarian | MDA-N | NCI-H226 lung | OVCAR-8 ovarian | K-562 leukemia | TK-10 renal | 786-0 renal | NCI-H460 lung | HOP-62 NSCLC | MALME-3M melanoma | SN12C renal | SF-539 CNS | HL-60(TB) leukemia | IGROV1 ovarian | U251 CNS | SF-268 CNS | DU-145 prostate | OVCAR-3 ovarian | CCRF-CEM leukemia | CAKI-1 renal | M14 melanoma | LOX IMVI melanoma | EKVX NSCLC | COLO 205 colon | MDA-MB-435 | MDA-MB-231 breast | T-47D breast | HS 578T breast | RPMI-8226 leukemia | BT-549 breast | HCT-116 colon | SNB-19 CNS | NCI-H522 lung | KM12 colon | SW-620 colon | NCI-H23 lung | PC-3 prostate | A549 NSCLC | SK-MEL-5 melanoma | MCF7 breast | UO-31 renal | HOP-92 NSCLC | HCT-15 colon | SK-MEL-28 melanoma | SF-295 CNS | OVCAR-5 ovarian | SR leukemia | A498 renal | ACHN renal | UACC-257 melanoma | UACC-62 melanoma | MOLT-4 leukemia | SNB-75 CNS | HT29 colon | OVCAR-4 ovarian

COC(=O)C1C(OS(=O)(=O)O)CCC2CN3CCc4c([nH]c5ccccc45)C3CC21 (stereo not drawn)
> 100 µM: NCI/ADR-RES ovarian | MDA-N | NCI-H226 lung | OVCAR-8 ovarian | K-562 leukemia | TK-10 renal | 786-0 renal | RXF 393 renal | NCI-H460 lung | HOP-62 NSCLC | MALME-3M melanoma | SN12C renal | SF-539 CNS | HL-60(TB) leukemia | IGROV1 ovarian | U251 CNS | SF-268 CNS | DU-145 prostate | OVCAR-3 ovarian | CCRF-CEM leukemia | SK-OV-3 ovarian | CAKI-1 renal | M14 melanoma | LOX IMVI melanoma | EKVX NSCLC | COLO 205 colon | MDA-MB-435 | MDA-MB-231 breast | T-47D breast | HS 578T breast | SK-MEL-2 melanoma | RPMI-8226 leukemia | BT-549 breast | HCT-116 colon | SNB-19 CNS | NCI-H522 lung | KM12 colon | SW-620 colon | NCI-H23 lung | PC-3 prostate | A549 NSCLC | SK-MEL-5 melanoma | MCF7 breast | UO-31 renal | HOP-92 NSCLC | HCT-15 colon | SK-MEL-28 melanoma | SF-295 CNS | OVCAR-5 ovarian | SR leukemia | A498 renal | ACHN renal | UACC-257 melanoma | UACC-62 melanoma | MOLT-4 leukemia | SNB-75 CNS | HT29 colon | OVCAR-4 ovarian

Reference: PubChem BioAssay (NCI)
